Where two headings read alike, the source gives them in different places.
Columns and labels:
KRasG12C = biological target: T1, KRasG12C (Homo sapiens, UniProt P01116, G12C); assay: KRasG12C functional assay (HTRF/FRET nucleotide exchange and Raf RBD binding); format: biochemical; conditions: samples incubated for 4 hrs, FRET readout, single experiment or average of two or more
T1 construct: biotin (biotinylated); made in house
Description: All enzyme and substrate solutions were prepared in assay buffer containing 20 mM HEPES (pH 7.5), 5 mM MgCl2, 150 mM NaCl, and 0.01% Tween 20. […] In a separate mix 20 nM GST-Raf Ras binding domain (GST-Raf RBD, purified in house) and 4 μg/ml anti-GST XL665 antibody (Cisbio) was prepared in assay buffer containing 50 mM Potassium Fluoride and 0.05 mg/ml BSA and equilibrated for 4 hours before adding 0.6 μM Guanosine 5′-[γ-thio]triphosphate (GTPγS, Sigma) and 0.08 μM SOS (purified in house). 5 μl of the GST-RAF RBD mix was then dispensed into each well of the assay plate. […] This is detected simultaneously via the specific binding interaction between active GTPγS KRas^G12C with GST-Raf RBD which brings the europium and XL665 into close proximity enabling an increased FRET signal to be detected on a Pherastar (BMG) plate reader equipped with the HTRF filter module. […] IC50 values were calculated from normalised dose-response response FRET data curve fitted in Genedata screener (Basel, Switzerland).

MDR1 (Pgp) and BCRP = assay: Blood brain barrier penetrant assessment: efflux ratio in MDCK_MDR1_BCRP cells; format: in vitro ADME; conditions: human, MDCK cells doubly transfected with MDR1 (Pgp) and BCRP, ratio of 2 or less = potential for good BBB penetration, read-out: Hu MDCK-MDR1-BCRP (0.1 uM) Mean Efflux Ratio
Description: In order to evaluate blood brain barrier (BBB) penetrant properties the efflux properties of compounds according to the specification was measured in cells transfected with the major efflux pumps expressed in the endothelial cells of the BBB. The assessment of efflux properties was performed using Madin-Darby Canine Kidney (MDCK) cells doubly transfected with MDR1 (Pgp) and BCRP. The transfected cell line, MDCK_MDR1_BCRP, thus expresses the two main efflux pumps that actively serve to exclude transit of compounds across the BBB and the efflux ration from these cell can be measured as described in the literature (Durant et al, Sci. Adv. 2018; eeat:1719). A compound that has an efflux ratio of 2 or less as measured by this technique is identified as having the potential for good BBB penetrant properties (Colclough et al, Drug Disc. Today 2019; 24(5), 1067-73).

[1] = GDP loaded biotinylated KRasG12C, read-out: KRasG12C functional assay IC50
[2] = KRasG12C functional assay IC50, GDP loaded biotinylated KRasG12C

T1 sequence (P01116 1-188 isoform P01116-2 G12C): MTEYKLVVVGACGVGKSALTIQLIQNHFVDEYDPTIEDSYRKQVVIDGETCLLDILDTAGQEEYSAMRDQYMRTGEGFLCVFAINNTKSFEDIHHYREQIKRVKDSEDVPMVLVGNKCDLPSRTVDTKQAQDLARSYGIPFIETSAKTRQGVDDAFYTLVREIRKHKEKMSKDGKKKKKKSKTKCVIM

| Compound | IC50 (KRasG12C; [1]) | efflux ratio at 0.1 uM (MDR1 (Pgp) and BCRP) | IC50 (KRasG12C; [2]) |
| --- | --- | --- | --- |
| C=CC(=O)N1CCN2C(=O)c3cc(F)c(-c4c(O)cccc4F)c(Cl)c3OC[C@H]2C1 (single isomer, unassigned) [Example 11] | 67 nM | 0.5 |  |
| C=CC(=O)N1CCN2Cc3cc(C#CC)c(-c4c(O)cccc4Cl)c(Cl)c3OC[C@H]2C1 (single isomer, unassigned) [Example 109] | 14 nM | 0.9 |  |
| C=CC(=O)N1CCN2Cc3cc(Cl)c(-c4c(O)cccc4F)c(Cl)c3OC[C@H]2C1 (single isomer, unassigned) [Example 27] | 24 nM | 0.8 |  |
| C#Cc1c2c(cc(F)c1-c1c(C)cccc1O)CN1CCN(C(=O)C=C)C[C@@H]1CO2 (single isomer, unassigned) [Example 65] | 182 nM | 1.4 |  |
| C#Cc1cc2c(c(C)c1-c1c(O)cccc1Cl)OC[C@H]1CN(C(=O)C=C)CCN1C2 (single isomer, unassigned) [Example 90] | 54 nM | 0.6 |  |
| C=CC(=O)N1CCN2Cc3cc(Cl)c(-c4c(O)cccc4Cl)c(F)c3OC[C@H]2C1 (single isomer, unassigned) [Example 84] |  | 0.6 | 25 nM |
| C#Cc1c(F)c2c(c(F)c1-c1c(O)cccc1Cl)OC[C@H]1CN(C(=O)C=C)CCN1C2 (single isomer, unassigned) [Example 95] | 19 nM | 0.9 |  |
| C=CC(=O)N1CCN2Cc3cc(F)c(-c4c(O)cccc4Cl)c(Cl)c3OC[C@H]2C1 (single isomer, unassigned) [Example 35] | 42 nM | 1.8 |  |
| C=CC(=O)N1CCN2Cc3c(F)c(F)c(-c4c(O)cccc4Cl)c(Cl)c3OC[C@H]2C1 (single isomer, unassigned) [Example 92] | 53 nM | 0.7 |  |
| C=CC(=O)N1CCN2C(=O)c3ccc(-c4c(C)ccc5[nH]ncc45)c(Cl)c3OC[C@@H]2C1 (single isomer, unassigned) [Example 2] |  |  | 4500 nM |
| C#Cc1cc2c(c(Cl)c1-c1c(O)cccc1Cl)OC[C@H]1CN(C(=O)C=C)CCN1C2 [Example 78, 1-[(12aR)-10-Chloro-9-(2-chloro-6-hydroxyphenyl)-8-ethynyl-3,4,12,12a-tetrahydro-6H-pyrazino[2,1-c][1,4]benzoxazepin-2(1H)-yl]prop-2-en-1-one] | 19.3 nM | 0.7 |  |
| C=CC(=O)N1CCN2Cc3c(c(Cl)c(-c4c(O)cccc4F)c4cnn(C)c34)OC[C@H]2C1 (single isomer, unassigned) [Example 73] | 23000 nM |  |  |
| C=CC(=O)N1CCN2Cc3cc(Cl)c(-c4c(C)cccc4O)c(F)c3OC[C@H]2C1 (single isomer, unassigned) [Example 61] | 27.7 nM | 0.3 |  |
| C#Cc1nc(-c2c(O)cccc2Cl)c(Cl)c2c1CN1CCN(C(=O)C=C)C[C@@H]1CO2 (single isomer, unassigned) [Example 120] | 51 nM |  |  |
| [2H]C([2H])([2H])Oc1nc2c(c(Cl)c1-c1c(O)cccc1Cl)OC[C@H]1CN(C(=O)C=C)CCN1C2 (single isomer, unassigned) [Example 112] | 44 nM | 1.5 |  |
| C=CC(=O)N1CCN2Cc3cc(OC(F)F)c(-c4c(O)cccc4Cl)c(F)c3OC[C@H]2C1 (single isomer, unassigned) [Example 94] |  |  | 14 nM |
| C=CC(=O)N1CCN2Cc3cc(F)c(-c4c(O)cccc4C(F)(F)F)c(F)c3OC[C@H]2C1 (single isomer, unassigned) [Example 49] | 65 nM | 0.9 |  |
| C=CC(=O)N1CCN2Cc3cc(F)c(-c4c(O)ccc(F)c4F)c(Cl)c3OC[C@H]2C1 (single isomer, unassigned) [Example 39] | 123 nM |  |  |
| C=CC(=O)N1CCN2Cc3c(OC)cc(-c4c(O)cccc4F)c(Cl)c3OC[C@H]2C1 [Example 5, 1-[(12aR)-10-Chloro-9-(2-fluoro-6-hydroxyphenyl)-7-methoxy-3,4,12,12a-tetrahydro-6H-pyrazino[2,1-c][1,4]benzoxazepin-2(1H)-yl]prop-2-en-1-one] | 157 nM |  |  |
| C=CC(=O)N1CCN2C(=O)c3ccc(-c4c(C)ccc5[nH]ncc45)c(Cl)c3OC[C@@H]2C1 (single isomer, unassigned) [Example 1] |  |  | 73000 nM |
| C#Cc1cc2c(c(Cl)c1-c1c(O)cccc1F)OC[C@H]1CN(C(=O)C=C)CCN1C2 (single isomer, unassigned) [Example 80] | 83 nM | 0.7 |  |

| Compound | IC50 (KRasG12C; [1]) | efflux ratio at 0.1 uM (MDR1 (Pgp) and BCRP) | IC50 (KRasG12C; [2]) |
| --- | --- | --- | --- |
| C=CC(=O)N1CCN2Cc3c(Cl)nc(-c4c(O)cccc4F)c(Cl)c3OC[C@H]2C1 [Example 68, 1-[(6aR)-1,4-Dichloro-3-(2-fluoro-6-hydroxyphenyl)-6a,7,9,10-tetrahydro-12H-pyrazino[2,1-c]pyrido[3,4-f][1,4]oxazepin-8(6H)-yl]prop-2-en-1-one] | 790 nM |  |  |
| C=CC(=O)N1CCN2Cc3cc(C#N)c(-c4c(C)cccc4O)c(Cl)c3OC[C@H]2C1 (single isomer, unassigned) [Example 41] | 180 nM |  |  |
| C=CC(=O)N1CCN2Cc3c(c(Cl)c(-c4c(O)cccc4F)c4cn(C)nc34)OC[C@H]2C1 (single isomer, unassigned) [Example 74] | 135 nM |  |  |
| C=CC(=O)N1CCN2Cc3cc(OC(F)F)c(-c4c(O)cccc4Cl)c(Cl)c3OC[C@H]2C1 (single isomer, unassigned) [Example 98] | 11 nM |  |  |
| C=CC(=O)N1CCN2Cc3c(C#N)cc(-c4c(O)cccc4F)c(Cl)c3OC[C@H]2C1 [Example 16, (12aR)-10-Chloro-9-(2-fluoro-6-hydroxyphenyl)-2-(prop-2-enoyl)-1,2,3,4,12,12a-hexahydro-6H-pyrazino[2,1-c][1,4]benzoxazepine-7-carbonitrile] | 430 nM |  |  |
| C=CC(=O)N1CCN2C(=O)c3cc(Cl)c(-c4c(O)cccc4F)c(Cl)c3OC[C@H]2C1 (single isomer, unassigned) [Example 21] | 12900 nM |  |  |
| C=CC(=O)N1CCN2Cc3cc(F)c(-c4c(O)cccc4CC)c(F)c3OC[C@H]2C1 (single isomer, unassigned) [Example 51] | 542 nM |  |  |
| C=CC(=O)N1CCN2Cc3cc(Cl)c(-c4c(O)cccc4F)c(Cl)c3OC[C@H]2C1 (single isomer, unassigned) [Example 26] | 1000 nM |  |  |
| C=CC(=O)N1CCN2C(=O)c3ccc(-c4c(C)ccc5[nH]ncc45)c(Cl)c3NC[C@H]2C1 (single isomer, unassigned) [Example 32] | 64800 nM |  |  |
| C#Cc1c2c(cc(Cl)c1-c1c(C)cccc1O)CN1CCN(C(=O)C=C)C[C@@H]1CO2 (single isomer, unassigned) [Example 62] | 15700 nM |  |  |
| C#Cc1c2c(cc(F)c1-c1c(C)cccc1O)CN1CCN(C(=O)C=C)C[C@@H]1CO2 (single isomer, unassigned) [Example 64] | 37100 nM |  |  |
| C=CC(=O)N1CCN2Cc3cc(C#N)c(-c4c(O)cccc4Cl)c(F)c3OC[C@H]2C1 (single isomer, unassigned) [Example 54] |  |  | 339 nM |
| C=CC(=O)N1CCN2Cc3c(c(Cl)c(-c4c(O)cccc4F)c4cnn(C)c34)OC[C@H]2C1 (single isomer, unassigned) [Example 72] | 133 nM |  |  |
| C=CC(=O)N1CCN2Cc3cc(F)c(-c4c(F)cccc4CO)c(F)c3OC[C@H]2C1 (single isomer, unassigned) [Example 46] | 99500 nM |  |  |
| C=CC(=O)N1CCN2C(=O)c3cc(F)c(-c4c(O)cccc4F)c(Cl)c3OC[C@H]2C1 (single isomer, unassigned) [Example 12] | 25200 nM |  |  |
| C=CC(=O)N1CCN2Cc3cc(OCc4ccncc4)c(-c4c(O)cccc4Cl)c(F)c3OC[C@H]2C1 (single isomer, unassigned) [Example 104] | 27 nM |  |  |
| C=CC(=O)N1CCN2Cc3c(OCCN(C)C)cc(-c4c(O)cccc4Cl)c(F)c3OC[C@H]2C1 (single isomer, unassigned) [Example 115] | 55 nM |  |  |
| C=CC(=O)N1CCN2Cc3cc(F)c(-c4c(F)cccc4CO)c(F)c3OC[C@H]2C1 (single isomer, unassigned) [Example 47] | 1720 nM |  |  |
| C=CC(=O)N1CCN2C(=O)c3cc(C)c(-c4c(O)cccc4F)c(Cl)c3OC[C@H]2C1 (single isomer, unassigned) [Example 25] | 68 nM |  |  |
| C=CC(=O)N1CCN2C(=O)c3ccc(-c4c(C)ccc5[nH]ncc45)c(Cl)c3N(C)C[C@H]2C1 (single isomer, unassigned) [Example 36] | 98200 nM |  |  |
| C=CC(=O)N1CCN2Cc3ccc(-c4c(C)ccc5[nH]ncc45)c(Cl)c3OC[C@H]2C1 (single isomer, unassigned) [Example 9] |  |  | 26000 nM |

— patent US12410187B2, “Fused tricyclic compounds useful as anticancer agents” (ASTRAZENECA AB, priority 2019, dated 2025)
